From patent US20050112615A1, “Genetic circuit inverting amplifier” (priority 2003, published 2005)

Test system: E.coli strain DH5αZ1 transformed with input pBT plasmid and amplifier plasmid pAMP-1
Test: Output EGFP fluorescence of genetic circuit amplifier as a function of input IPTG concentration
Assay type: cell-based
Conditions: 3 hours growth, corrected for cell density and background fluorescence
Description: A second bacterial plasmid, pBT (Stratagene, CA), was selected to produce the input. It releases monomer into the cellular environment, making CI available for the engineered circuit to use. It is a simple plasmid that controls transcription of cI with the PlacUV promoter. […] The pBT vector has an origin of replication derived from p15A, making it compatible with the circuit plasmid which has a different ColE1 origin of replication. Together, the plasmids constitute a cis-trans network, since the product of one plasmid (pBT) affects the outcome of gene expression on the second plasmid (pAMP-1).
The input pBT plasmid and the amplifier plasmid pAMP-1 gene were transformed into chemically competent E.coli strain DH5αZ1. This strain was selected because it produces LacI in abundance so as to permit effective use of pBT. Transformed cells were grown overnight at 37° C. in LB broth. Chloramphenicol was added at a concentration of 50 μg/mL and ampicillin was added at a concentration of 100 μg/mL.
The overnight culture was diluted 1:50 into fresh LB medium containing IPTG at the following concentrations: 0-20-200-2000 μM. These cells were allowed to grow for another 3 hours. The cells were then spun down and re-suspended in PBS. Fluorescence was then measured on a BMG Optima microplate fluorometer equipped with filters for GFP. Absorbance at 600 nm was also measured. Fluorescence was the corrected for cell density and background fluorescence. The result, presented in Table 1, indicates an output that decreases with increasing input. Observed non-linearity is likely due to low gain of chosen gain element.

Question: What does the source list for `CC(C)S[C@@H]1O[C@H](CO)[C@H](O)[C@H](O)[C@H]1O` [IPTG, isopropyl-β-D-thiogalactopyranoside]?
Answer: EGFP output fluorescence (IPTG 20 uM): 66263 arbitrary units; EGFP output fluorescence (IPTG 200 uM): 58338 arbitrary units; EGFP output fluorescence (IPTG 2000 uM): 44137 arbitrary units
